According to US10040781B2, “Tank-binding kinase inhibitor compounds” (Gilead Sciences, Inc., priority 2014, dated 2018):
Structures can show the parent of a compound that is named as a salt. Where two headings read alike, the source gives them in different places.

Experiments:
[1] = molecular target: TBK1 (Homo sapiens (Human), UniProt Q9UHD2); test: TBK1 TR-FRET enzymatic assay;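 also: phosphorylation of a biotinylated Ser/Thr peptide by purified full-length recombinant TBK1, read by TR-FRET after 240 min at 25 °C, IC50 is the geometric mean of at least four runs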
TBK1, sequence (Q9UHD2 whole entry): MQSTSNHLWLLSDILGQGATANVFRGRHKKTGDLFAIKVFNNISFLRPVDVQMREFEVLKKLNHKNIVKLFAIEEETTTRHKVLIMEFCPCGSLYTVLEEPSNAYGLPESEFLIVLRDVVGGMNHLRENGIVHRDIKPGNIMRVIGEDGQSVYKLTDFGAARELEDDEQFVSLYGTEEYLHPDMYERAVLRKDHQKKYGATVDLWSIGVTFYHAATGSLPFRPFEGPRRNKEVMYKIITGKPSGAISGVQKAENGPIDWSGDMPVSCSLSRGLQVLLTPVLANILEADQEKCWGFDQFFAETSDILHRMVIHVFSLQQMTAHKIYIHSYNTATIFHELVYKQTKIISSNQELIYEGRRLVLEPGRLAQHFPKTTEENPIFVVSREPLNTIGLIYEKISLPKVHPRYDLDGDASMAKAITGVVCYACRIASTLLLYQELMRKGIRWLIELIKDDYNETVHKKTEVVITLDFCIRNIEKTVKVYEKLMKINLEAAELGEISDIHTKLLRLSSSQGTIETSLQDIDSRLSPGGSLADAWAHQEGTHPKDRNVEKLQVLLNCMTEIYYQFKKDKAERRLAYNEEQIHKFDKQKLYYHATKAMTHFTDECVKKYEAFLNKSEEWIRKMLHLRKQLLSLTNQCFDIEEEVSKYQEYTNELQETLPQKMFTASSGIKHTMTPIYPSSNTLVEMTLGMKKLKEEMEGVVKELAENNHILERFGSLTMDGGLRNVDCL

[2] = molecular target: hJAK2 (Homo sapiens (Human), UniProt O60674); test: hJAK2 LANCE TR-FRET enzymatic assay; type: biochemical; conditions: read-out: JAK2 IC50
hJAK2, sequence (O60674 whole entry): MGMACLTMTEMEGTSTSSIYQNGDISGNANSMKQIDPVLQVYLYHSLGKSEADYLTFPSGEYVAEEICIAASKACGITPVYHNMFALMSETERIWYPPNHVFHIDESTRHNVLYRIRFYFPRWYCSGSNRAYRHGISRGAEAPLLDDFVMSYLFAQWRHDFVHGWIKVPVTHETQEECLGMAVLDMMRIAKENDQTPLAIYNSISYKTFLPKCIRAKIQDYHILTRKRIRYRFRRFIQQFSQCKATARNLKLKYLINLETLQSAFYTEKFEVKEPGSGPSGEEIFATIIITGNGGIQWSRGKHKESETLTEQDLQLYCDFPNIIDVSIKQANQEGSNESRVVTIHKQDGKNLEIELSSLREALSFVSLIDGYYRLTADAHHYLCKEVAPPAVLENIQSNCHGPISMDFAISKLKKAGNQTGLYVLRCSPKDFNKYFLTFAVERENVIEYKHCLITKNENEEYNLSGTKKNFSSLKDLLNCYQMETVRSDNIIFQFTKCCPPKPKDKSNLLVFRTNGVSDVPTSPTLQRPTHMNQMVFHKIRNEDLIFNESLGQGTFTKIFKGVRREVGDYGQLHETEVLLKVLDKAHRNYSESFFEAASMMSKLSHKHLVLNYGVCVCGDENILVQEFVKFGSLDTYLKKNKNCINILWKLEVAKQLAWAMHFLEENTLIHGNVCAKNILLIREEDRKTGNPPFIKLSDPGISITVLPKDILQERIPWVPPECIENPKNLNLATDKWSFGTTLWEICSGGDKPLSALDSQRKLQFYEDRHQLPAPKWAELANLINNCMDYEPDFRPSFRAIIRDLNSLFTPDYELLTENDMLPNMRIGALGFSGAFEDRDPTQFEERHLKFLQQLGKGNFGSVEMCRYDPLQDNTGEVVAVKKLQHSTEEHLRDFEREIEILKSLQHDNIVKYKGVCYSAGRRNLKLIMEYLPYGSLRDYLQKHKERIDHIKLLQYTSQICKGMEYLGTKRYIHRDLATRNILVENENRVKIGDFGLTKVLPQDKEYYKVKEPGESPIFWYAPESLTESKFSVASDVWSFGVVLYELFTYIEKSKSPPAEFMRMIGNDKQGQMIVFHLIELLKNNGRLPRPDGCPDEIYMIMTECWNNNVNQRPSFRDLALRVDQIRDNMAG

[3] = molecular target: IKKε (Homo sapiens (Human), UniProt Q14164); test: IKKε TR-FRET enzymatic assay; type: biochemical; conditions: read-out: IKKe IC50
IKKε, sequence (Q14164 whole entry): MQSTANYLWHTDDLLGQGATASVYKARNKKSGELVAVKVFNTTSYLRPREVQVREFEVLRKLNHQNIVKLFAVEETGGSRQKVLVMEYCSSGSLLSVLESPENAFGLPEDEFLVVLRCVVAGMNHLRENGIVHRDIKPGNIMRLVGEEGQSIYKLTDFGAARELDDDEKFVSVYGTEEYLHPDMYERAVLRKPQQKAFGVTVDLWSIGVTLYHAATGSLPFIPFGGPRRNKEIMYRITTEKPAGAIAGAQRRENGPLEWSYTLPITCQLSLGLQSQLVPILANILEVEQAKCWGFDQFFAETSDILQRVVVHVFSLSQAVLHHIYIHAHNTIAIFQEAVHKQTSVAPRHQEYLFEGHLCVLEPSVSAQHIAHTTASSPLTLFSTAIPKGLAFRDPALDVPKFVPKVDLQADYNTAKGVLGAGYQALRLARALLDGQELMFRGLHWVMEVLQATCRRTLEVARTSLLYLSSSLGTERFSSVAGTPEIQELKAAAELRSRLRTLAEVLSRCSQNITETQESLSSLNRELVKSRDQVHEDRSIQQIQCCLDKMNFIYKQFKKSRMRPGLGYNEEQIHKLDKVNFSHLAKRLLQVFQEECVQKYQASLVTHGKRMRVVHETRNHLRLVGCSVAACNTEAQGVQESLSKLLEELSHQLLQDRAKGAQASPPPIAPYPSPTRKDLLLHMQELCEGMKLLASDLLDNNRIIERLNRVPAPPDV

[4] = TR-FRET, 2×Km ATP, geometric mean of minimum four determinations

SMILES	IC50 [1] [nM]	IC50 [2] [nM]	IC50 [3, 4] [nM]	IC50 [3] [nM]
C[C@H]1CN(C(=O)CO)CC(F)(F)[C@H]1Oc1ccc(-c2ncnc(Nc3ccc(N4CCN(C5COC5)CC4)cc3)n2)cc1C#N (relative stereo) [Example 430, Cis 2-((3,3-difluoro-1-(2-hydroxyacetyl)-5-methylpiperidin-4-yl)oxy)-5-(4-((4-(4-(oxetan-3-yl)piperazin-1-yl)phenyl)amino)-1,3,5-triazin-2-yl)benzonitrile]	4	65	2	
C[C@@H]1CN(C(=O)CO)CC(F)(F)[C@H]1Oc1ccc(-c2ncnc(Nc3ccc(N4CCN(C5COC5)CC4)cc3)n2)cc1C#N (relative stereo) [Example 432, trans-2-((3,3-difluoro-1-(2-hydroxyacetyl)-5-methylpiperidin-4-yl)oxy)-5-(4-((4-(4-(oxetan-3-yl)piperazin-1-yl)phenyl)amino)-1,3,5-triazin-2-yl)benzonitrile]	5	140	3	
N#Cc1cc(-c2ncnc(Nc3ccc(N4CCN(C5COC5)CC4)cc3)n2)ccc1O[C@H]1CCN(C(=O)CO)C[C@H]1C(F)(F)F (relative stereo) [Example 439, cis-2-((1-(2-hydroxyacetyl)-3-(trifluoromethyl)piperidin-4-yl)oxy)-5-(4-((4-(4-(oxetan-3-yl)piperazin-1-yl)phenyl)amino)-1,3,5-triazin-2-yl)benzonitrile]	9	21	12	
CC1(C)CN(C(=O)CO)C[C@@H](F)[C@H]1Oc1ccc(-c2ncnc(Nc3ccc(N4CCN(C5COC5)CC4)cc3)n2)cc1C#N (single isomer, unassigned) [Example 179]	8	234		13
CC(N)C(=O)N1CC[C@H](Oc2ccc(-c3ncnc(Nc4ccc(N5CCN(C6COC6)CC5)cc4)n3)cc2C#N)[C@H](F)C1 (stereo in doubt) [Example 434, 2-(((3R,4S)-1-((R)-2-aminopropanoyl)-3-fluoropiperidin-4-yl)oxy)-5-(4-((4-(4-(oxetan-3-yl)piperazin-1-yl)phenyl)amino)-1,3,5-triazin-2-yl)benzonitrile]	20	865	42	
N#Cc1cc(-c2ncnc(Nc3ccc(N4CCS(=O)(=O)CC4)cc3)n2)ccc1OC1CCOCC1 [Example 1, 5-(4-((4-(1,1-dioxidothiomorpholino)phenyl)amino)-1,3,5-triazin-2-yl)-2-((tetrahydro-2H-pyran-4-yl)oxy)benzonitrile]	2	360		6
CC(=O)N1CC[C@@H](Oc2ccc(-c3ncnc(Nc4ccc(N5CCN(C6COC6)CC5)cc4)n3)cc2C#N)C1 [Example 3, (R)-2-((1-acetylpyrrolidin-3-yl)oxy)-5-(4-((4-(4-(oxetan-3-yl)piperazin-1-yl)phenyl)amino)-1,3,5-triazin-2-yl)benzonitrile]	20	724		99
N#Cc1cc(-c2ncnc(Nc3ccc(N4CCN(C5COC5)CC4)cc3)n2)ccc1OC1COC1 [Example 5, 5-(4-((4-(4-(oxetan-3-yl)piperazin-1-yl)phenyl)amino)-1,3,5-triazin-2-yl)-2-(oxetan-3-yloxy)benzonitrile]	35	269		101
Cn1cc(Nc2ncnc(-c3ccc(N4CCCC4)c(C#N)c3)n2)cn1 [Example 8, 5-(4-((1-methyl-1H-pyrazol-4-yl)amino)-1,3,5-triazin-2-yl)-2-(pyrrolidin-1-yl)benzonitrile]	7	278		19
N#Cc1cc(-c2ncnc(Nc3ccc(N4CCN(C5COC5)CC4)cc3)n2)ccc1N1CCCC1 [Example 10, 5-(4-((4-(4-(oxetan-3-yl)piperazin-1-yl)phenyl)amino)-1,3,5-triazin-2-yl)-2-(pyrrolidin-1-yl)benzonitrile]	5	336		15
CC(=O)N1CCN(c2ccc(Nc3ncnc(-c4ccc(OC5CCOCC5)c(C#N)c4)n3)cc2)CC1 [Example 11, 5-(4-((4-(4-acetylpiperazin-1-yl)phenyl)amino)-1,3,5-triazin-2-yl)-2-((tetrahydro-2H-pyran-4-yl)oxy)benzonitrile]	1	224		4
COc1cc(Nc2ncnc(-c3ccc(OC4CCOCC4)c(C#N)c3)n2)ccc1N1CCN(C2COC2)CC1 [Example 13, 5-(4-((3-methoxy-4-(4-(oxetan-3-yl)piperazin-1-yl)phenyl)amino)-1,3,5-triazin-2-yl)-2-((tetrahydro-2H-pyran-4-yl)oxy)benzonitrile]	1	127		2
N#Cc1cc(-c2ncnc(Nc3ccc(N4CCNCC4)cc3)n2)ccc1OC1CCOCC1 [Example 18, 5-(4-((4-(piperazin-1-yl)phenyl)amino)-1,3,5-triazin-2-yl)-2-((tetrahydro-2H-pyran-4-yl)oxy)benzonitrile, trifluoroacetic acid salt]	1	271		1

Now from value to compound:

IC50 [1] [nM]	IC50 [2] [nM]	IC50 [3, 4] [nM]	IC50 [3] [nM]	SMILES
6	15	8		N#Cc1cc(-c2ncnc(Nc3ccc(N4CCN(C5COC5)CC4)cc3)n2)ccc1O[C@H]1CCN(C(=O)CO)C[C@@H]1C(F)(F)F (relative stereo) [Example 438, Trans-2-((1-(2-hydroxyacetyl)-3-(trifluoromethyl)piperidin-4-yl)oxy)-5-(4-((4-(4-(oxetan-3-yl)piperazin-1-yl)phenyl)amino)-1,3,5-triazin-2-yl)benzonitrile]
49	330		229	N#Cc1cc(-c2ncnc(Nc3ccc(N4CCN(C5COC5)CC4)cc3)n2)ccc1O[C@H]1CCNCC1(F)F (single isomer, unassigned) [Example 149]
2	270		14	N#Cc1cc(-c2ncnc(Nc3ccc(N4CCN(C5COC5)CC4)cc3)n2)ccc1O[C@@H]1CCNCC1(F)F (single isomer, unassigned) [Example 150]
16	196		23	C[C@H](O)C(=O)N1CC[C@@H](Oc2ccc(-c3ncnc(Nc4ccc(N5CCN(C6COC6)CC5)cc4)n3)cc2C#N)C(F)(F)C1 (single isomer, unassigned) [Example 156]
1	171		3	C[C@@H](O)C(=O)N1CC[C@H](Oc2ccc(-c3ncnc(Nc4ccc(N5CCN(C6COC6)CC5)cc4)n3)cc2C#N)C(F)(F)C1 (single isomer, unassigned) [Example 158]
79	207		209	C[C@@H](O)C(=O)N1CC[C@@H](Oc2ccc(-c3ncnc(Nc4ccc(N5CCN(C6COC6)CC5)cc4)n3)cc2C#N)C(F)(F)C1 (single isomer, unassigned) [Example 159]
2	49		1	CC1(C)CN(C(=O)CO)C[C@H](F)[C@@H]1Oc1ccc(-c2ncnc(Nc3ccc(N4CCN(C5COC5)CC4)cc3)n2)cc1C#N (single isomer, unassigned) [Example 178]
2	90		10	N#Cc1cc(-c2ncnc(Nc3ccc(N4CCN(C5COC5)CC4)cc3)n2)ccc1O[C@H]1CN(C(=O)CO)CC1(F)F (single isomer, unassigned) [Example 195]
114	118		391	N#Cc1cc(-c2ncnc(Nc3ccc(N4CCN(C5COC5)CC4)cc3)n2)ccc1O[C@@H]1CN(C(=O)CO)CC1(F)F (single isomer, unassigned) [Example 196]
7	178		20	CC1(COc2ccc(-c3ncnc(Nc4ccc(N5CCN(C6COC6)CC5)cc4)n3)cc2C#N)COC1 [Example 6, 2-((3-methyloxetan-3-yl)methoxy)-5-(4-((4-(4-(oxetan-3-yl)piperazin-1-yl)phenyl)amino)-1,3,5-triazin-2-yl)benzonitrile]
1	225		3	COc1cc(Nc2ncnc(-c3ccc(OC4CCOCC4)c(C#N)c3)n2)ccc1N1CCN(CC(F)F)CC1 [Example 7, 5-(4-((4-(4-(2,2-difluoroethyl)piperazin-1-yl)-3-methoxyphenyl)amino)-1,3,5-triazin-2-yl)-2-((tetrahydro-2H-pyran-4-yl)oxy)benzonitrile]
3	363		7	Cn1cc(Nc2ncnc(-c3ccc(OC4CCOCC4)c(C#N)c3)n2)cn1 [Example 9, 5-(4-((1-methyl-1H-pyrazol-4-yl)amino)-1,3,5-triazin-2-yl)-2-((tetrahydro-2H-pyran-4-yl)oxy)benzonitrile]
5	> 1000		14	C[C@H](O)C(=O)N1CCC(Oc2ccc(-c3ncnc(Nc4ccc(N5CCN(C6COC6)CC5)cc4)n3)cc2C#N)CC1 [Example 15, (S)-2-((1-(2-hydroxypropanoyl)piperidin-4-yl)oxy)-5-(4-((4-(4-(oxetan-3-yl)piperazin-1-yl)phenyl)amino)-1,3,5-triazin-2-yl)benzonitrile]
1	603		4	N#Cc1cc(-c2ncnc(Nc3ccc(N4CCN(C5COC5)CC4)cc3)n2)ccc1OC1CCN(C(=O)CO)CC1 [Example 16, 2-((1-(2-hydroxyacetyl)piperidin-4-yl)oxy)-5-(4-((4-(4-(oxetan-3-yl)piperazin-1-yl)phenyl)amino)-1,3,5-triazin-2-yl)benzonitrile]
9	540		54	N#Cc1cc(-c2ncnc(Nc3ccc(N4CCN(C5COC5)CC4)cc3)n2)ccc1OC1CCS(=O)(=O)CC1 [Example 17, 2-((1,1-dioxidotetrahydro-2H-thiopyran-4-yl)oxy)-5-(4-((4-(4-(oxetan-3-yl)piperazin-1-yl)phenyl)amino)-1,3,5-triazin-2-yl)benzonitrile]
